In brackets after ≈: the same amount, converted by molar mass.
details: buffer; pH 7.4; 200.0 µM

SMILES | solubility kinetic [µg/mL]
O=C(CN1CCOCC1)NNC(=O)c1ccc([N+](=O)[O-])cc1 | > 46.2
Cc1ccc(C)c(/C=C2\N=C(c3ccccc3F)OC2=O)c1 | 11.8 (≈ 40 µM)
CCOC(=O)c1cn(CC)c2c(ccc3ccccc32)c1=O | < 0.6
O=Cc1cccn1-c1ncc(Br)cn1 | 30.6 (≈ 121 µM)
CC(=O)c1ccc(OC(=O)CCNC(=O)c2ccccc2)cc1 | 27.6 (≈ 88.6 µM)
Cl.Cn1sccc1=O | 18.4
O=c1c2ccccc2ncn1Cc1ccccc1 | 31.5 (≈ 133 µM)
Fc1ccc(-c2csc(-c3ccccn3)n2)cc1F | < 0.3
Cc1ccc(Cn2ncc(C)c2N)o1 | > 28.7
COc1ccc(C(=O)NC(=S)N2CCCC2)cc1 | > 39.7
COc1cccc(OC)c1C(=O)Nc1sc2c(c1C#N)CCC2 | 0.7 (≈ 2.13 µM)
Cc1ccc(OCCC(=O)Nc2ccc3c(c2)OCO3)cc1 | 14.8 (≈ 49.4 µM)
CN1CCCNc2nc3ccccc3nc21 | > 32.1
Cc1ccc(NC(=O)CC2NCCN(Cc3ccccc3)C2=O)cc1 (stereo not given) | 43.6 (≈ 129 µM)
O=C1COc2ccc(C(=O)CCl)cc2N1 | > 33.8
Cc1ccc(-n2c(C)c(C)c3c(N)ncnc32)cc1 | 16.1 (≈ 63.8 µM)
Cc1ccc(NC(=O)COC(=O)C2CCC(=O)N2)c([N+](=O)[O-])c1 (stereo not given) | > 48.2
Cc1onc(-c2ccccc2)c1C(=O)N(Cc1ccccc1)C(C)C | > 50.2
CC(=O)N=c1scc(-c2ccccc2)n1-c1cccc(O)c1 | 2.6 (≈ 8.38 µM)
Cc1cc(C)c2sc(C)[n+](CCCS(=O)(=O)[O-])c2c1 | 38.8 (≈ 130 µM)

SMILES | solubility kinetic [µg/mL]
Cc1ccc(CNC(=O)/C=C/C(=O)O)cc1 | > 32.9
O=C(O)C1CCCN1C(=O)OCC1c2ccccc2-c2ccccc21 (stereo not given) | > 50.6
Cc1ccc(C)c(NC(=O)C(C)N2C(=O)c3ccccc3C2=O)c1 (stereo not given) | 21 (≈ 65.1 µM)
CC(=O)c1c(C)n(-c2ccccc2Br)c2ccc(O)cc12 | 1 (≈ 2.91 µM)
Cc1cc([N+](=O)[O-])nn1CC(=O)N(C)C1CCCCC1 | > 42
Cc1onc(-c2ccccc2Cl)c1C(=O)NCc1ccccc1F | > 51.7
O=C(O)C1CC=CCC1C(=O)NCCCN1CCCC1=O (stereo not given) | > 44.2
CC1Cc2ccccc2N1C(=O)CN1CCCCC1.Cl (stereo not given) | 39.3
Cc1ccc2c(c1)N(CC(=O)NCc1ccco1)C(=O)C(C(C)C)O2 (stereo not given) | 22.8 (≈ 66.6 µM)
COc1ccccc1/C=C/C(=O)OCC(=O)c1cc(C)n(C)c1C | 7.9 (≈ 24.1 µM)
CC(C)(C)c1ccc(C(=O)N2CCN(Cc3ccccc3)CC2)cc1 | 28.5 (≈ 84.7 µM)
CC(=O)c1ccc(S(=O)(=O)N2CCN(C(C)C(=O)N(C)Cc3ccccc3)CC2)cc1 (stereo not given) | 44 (≈ 99.2 µM)
O=C(CN1CCCCC1)Nc1nc(-c2ccc(F)c(F)c2)cs1 | 2 (≈ 5.93 µM)
CN1CCC(CNC(=O)Nc2ccccc2)(c2ccccc2)CC1 | > 48.5
CCOC(=O)N1CCN(S(=O)(=O)c2ccc(C)cc2)CC1 | 28.1 (≈ 90 µM)
CC1C(=O)N2CCCc3cc(NS(C)(=O)=O)cc1c32 (stereo not given) | 40.3 (≈ 144 µM)
COc1cc2nc(CN3CCN(S(=O)(=O)c4ccccc4C(F)(F)F)CC3)[nH]c(=O)c2cc1OC | 12.4 (≈ 24.2 µM)
Cc1cccc(C(=O)NCC(=O)NC(C)CCc2ccccc2)c1 (stereo not given) | 40.8 (≈ 126 µM)
COc1ccc(C(=O)O)cc1S(=O)(=O)N(C)CCc1ccccn1 | > 52.6
CCC(=NC(C)c1ccccc1)c1c(O)[nH]c(=O)[nH]c1=O (stereo not given) | > 43.1

SMILES | solubility kinetic [µg/mL]
CCCN1CCN(S(=O)(=O)c2ccc3c(c2)CCC(=O)N3)CC1 | > 50.6
CC12CCC(=O)N1C(C(=O)Nc1cccc(F)c1)CS2 (stereo not given) | > 44.2
O=C1NC(=O)C(c2ccccc2)(c2ccccc2)N1 | > 37.8
C/C(=N/NC(=O)CNC(=O)c1ccncc1)c1ccco1 | > 42.9
Cc1ccc(S(C)(=O)=NS(=O)(=O)c2cccc3nsnc23)cc1 (stereo not given) | > 55.1
Cc1ccc(CSCC(=O)NCCc2ccccc2)cc1 | 40.9 (≈ 137 µM)
Nc1nc(-c2ccccc2)cc(-c2ccccc2)n1 | 2.6 (≈ 10.5 µM)
COc1ccccc1NC(=O)c1ccc2c(c1)C(=O)N(Cc1ccco1)C2=O | < 0.4
C=CCCC(=O)N1CCCC(C(=O)c2cccc(OC)c2)C1 (stereo not given) | 40.7 (≈ 135 µM)
CN(C)c1ccc(NC(=O)COC(=O)c2ccc3c(c2)OCO3)cc1 | 10.8 (≈ 31.5 µM)
Cc1cc(-c2ccccc2)nc2oc3c(c12)NC(=O)CN(c1ccccc1)C3=O | < 0.3
Cc1ccc(C(=O)N/C(=C\c2ccco2)C(=O)N2CCCCC2)cc1 | > 50.8
Cc1ccc2c(c1)N(CC(=O)N1CCCCC1)C(=O)C(C)O2 (stereo not given) | > 45.4
O=C(COc1nncc2ccccc12)NCC(F)(F)F | > 42.8
CC1CCN(C(=O)NC(=O)c2ccccc2)CC1 | > 36.9
O=C(O)c1ccccc1OCc1nc2ccccc2s1 | < 0.6
CCOC(=O)[C@@H]1CCN(Cc2ccccc2)C[C@H]1c1ccccc1.Cl | 30.7
CCCn1cnc2cc(NCc3cccs3)ccc21 | > 40.7
CN1C(=O)c2ccc(NC(=O)c3c(C(=O)O)cccc3[N+](=O)[O-])cc2C1=O | > 55.4
O=C(O)CCC(=O)Nc1ccc(OCC2CCCO2)cc1 (stereo not given) | 43.8 (≈ 149 µM)
